Source: patent US20240158446A1, “CYCLIC COMPOUND HAVING SELECTIVE INHIBITORY ACTION ON KRAS OVER HRAS AND NRAS” (CHUGAI SEIYAKU KABUSHIKI KAISHA, priority 2021, published 2024)

Experiments:
[1] = target: GDP-bound HRAS wild-type protein (Homo sapiens, UniProt P01112); assay: Binding to HRAS by surface plasmon resonance (SPR), Single Cycle Kinetics; conditions: SPR; GDP-bound HRAS wild-type protein vs GDP-bound KRAS wild-type protein; KD ratio class
[2] = target: GDP-bound KRAS wild-type protein (Homo sapiens, UniProt P01116); assay: Binding to KRAS by surface plasmon resonance (SPR), Single Cycle Kinetics; conditions: SPR, Single Cycle Kinetics, 1:1 binding model; GDP-bound KRAS wild-type protein; read-out: KRAS KD
[3] = target: GDP-bound NRAS wild-type protein (Homo sapiens, UniProt P01111); assay: Binding to NRAS by surface plasmon resonance (SPR), Single Cycle Kinetics; conditions: SPR; GDP-bound NRAS wild-type protein vs GDP-bound KRAS wild-type protein; KD ratio class
GDP-bound NRAS wild-type protein, sequence (P01111 whole entry): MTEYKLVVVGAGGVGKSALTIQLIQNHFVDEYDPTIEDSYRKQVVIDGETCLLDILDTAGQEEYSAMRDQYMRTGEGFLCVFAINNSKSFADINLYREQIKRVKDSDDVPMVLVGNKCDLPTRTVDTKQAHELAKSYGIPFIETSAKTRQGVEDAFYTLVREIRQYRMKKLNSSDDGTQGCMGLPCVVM

GDP-bound HRAS wild-type protein, sequence (P01112 whole entry): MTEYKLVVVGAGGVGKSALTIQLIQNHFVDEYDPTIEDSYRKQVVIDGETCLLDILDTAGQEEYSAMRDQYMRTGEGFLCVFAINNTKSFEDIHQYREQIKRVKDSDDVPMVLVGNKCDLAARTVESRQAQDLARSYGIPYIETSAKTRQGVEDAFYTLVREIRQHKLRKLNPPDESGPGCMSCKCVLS
GDP-bound KRAS wild-type protein, sequence (P01116 whole entry): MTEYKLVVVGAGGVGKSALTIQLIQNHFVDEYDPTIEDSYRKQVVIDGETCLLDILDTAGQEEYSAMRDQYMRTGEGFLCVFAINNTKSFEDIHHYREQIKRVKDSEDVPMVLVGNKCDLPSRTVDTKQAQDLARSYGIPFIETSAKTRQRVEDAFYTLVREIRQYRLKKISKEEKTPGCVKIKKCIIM

| Structure (SMILES) | Kd [2] | HRAS/KRAS (ratio of KD value for HRAS to KD value for KRAS) [1] | NRAS/KRAS (ratio of KD value for NRAS to KD value for KRAS) [3] |
| --- | --- | --- | --- |
| CCCN(C)C(=O)[C@@H]1CC(=O)N(C)[C@@H](CC2CC2)C(=O)N[C@@H]([C@@H](C)CC)C(=O)N(C)CC(=O)N(C)[C@H]2C/C=C\CCN(C2=O)[C@@H](Cc2ccc(C(F)(F)F)cc2)C(=O)N(C)CC(=O)N[C@@H](CCc2cc(F)c(C(F)(F)F)c(F)c2)C(=O)N2C[C@H](OCC)C[C@H]2C(=O)NC2(CCC2)C(=O)N(C)[C@@H](C2CCCC2)C(=O)N1C [PP1388] | 76 pM | B (a compound having 3 or more and less than 10 is denoted as B) | A (a compound having 10 or more and less than 20 is denoted as A) |
| CCC[C@H]1C(=O)N[C@@H]([C@@H](C)CC)C(=O)N(C)CC(=O)N(C)[C@H]2C/C=C\CCN(C2=O)[C@@H](Cc2ccc(C(F)(F)F)cc2)C(=O)N(C)CC(=O)N[C@@H](CCc2cc(F)c(C(F)(F)F)c(F)c2)C(=O)N2C[C@H](OCC)C[C@H]2C(=O)NC2(CCC2)C(=O)N(C)[C@@H](C2CCCC2)C(=O)N(C)[C@H](C(=O)N(C)CCC)CC(=O)N1C [PP1389, (2S,8S,12R,14S,20S,23S,27S,30S,36S,38Z)-20-cyclopentyl-8-[2-[3,5-difluoro-4-(trifluoromethyl)phenyl]ethyl]-12-ethoxy-N,4,19,22,26,32,35-heptamethyl-30-[(1S)-1-methylpropyl]-3,6,9,15,18,21,25,28,31,34,42-undecaoxo-N,27-dipropyl-2-[[4-(trifluoromethyl)phenyl]methyl]spiro[1,4,7,10,16,19,22,26,29,32,35-undecazatricyclo[34.5.1.0^10,14]dotetracont-38-ene-17,1′-cyclobutane]-23-carboxamide] | 66 pM | A (a compound having 10 or more and less than 20 is denoted as A) | AA (a compound having 20 or more is denoted as AA) |
| CCCOC[C@H]1C(=O)N[C@@H]([C@@H](C)CC)C(=O)N(C)CC(=O)N(C)[C@H]2C/C=C\CCN(C2=O)[C@@H](Cc2ccc(C)cc2)C(=O)N(C)CC(=O)N[C@@H](CCc2cc(F)c(C(F)(F)F)c(F)c2)C(=O)N2C[C@H](OCC)C[C@H]2C(=O)NC2(CCCC2)C(=O)N(C)[C@@H](C2CCCC2)C(=O)N(C)[C@H](C(=O)N2CCCC2)CC(=O)N1C [PP1401] | 260 pM | A (a compound having 10 or more and less than 20 is denoted as A) | A (a compound having 10 or more and less than 20 is denoted as A) |
| CCO[C@@H]1C[C@H]2C(=O)NC3(CCC3)C(=O)N(C)[C@@H](C3CCCC3)C(=O)N(C)[C@H](C)CC(=O)N(C)[C@@H](CC(C)C)C(=O)N[C@@H]([C@@H](C)CC)C(=O)N(C)CC(=O)N(C)[C@H]3C/C=C\CCN(C3=O)[C@@H](Cc3ccc(C)cc3)C(=O)N(C)CC(=O)N[C@@H](CCc3cc(F)c(C(F)(F)F)c(F)c3)C(=O)N2C1 [PP1417] | 260 pM | B (a compound having 3 or more and less than 10 is denoted as B) | B (a compound having 3 or more and less than 10 is denoted as B) |
| CCO[C@@H]1C[C@H]2C(=O)NC3(CCC3)C(=O)N(C)[C@@H](C3CCCC3)C(=O)N(C)[C@H](C(=O)N(C)C)CC(=O)N(C)[C@@H](CC3CCCC3)C(=O)N[C@@H]([C@@H](C)CC)C(=O)N(C)CC(=O)N(C)[C@H]3C/C=C\CCN(C3=O)[C@@H](Cc3ccc(C)cc3)C(=O)N(C)CC(=O)N[C@@H](CCc3ccc(Cl)c(Cl)c3)C(=O)N2C1 [PP1487] | 340 pM | A (a compound having 10 or more and less than 20 is denoted as A) | A (a compound having 10 or more and less than 20 is denoted as A) |
| CCO[C@@H]1C[C@H]2C(=O)NC3(CCC3)C(=O)N(C)[C@@H](C3CCCC3)C(=O)N(C)[C@H](C(=O)N(C)C)CC(=O)N(C)[C@@H](CC(C)C)C(=O)N[C@@H]([C@@H](C)CC)C(=O)N(C)CC(=O)N(C)[C@H]3C/C=C\CCN(C3=O)[C@@H](Cc3ccc(F)cc3)C(=O)N(C)CC(=O)N[C@@H](CCc3cc(F)c(C(F)(F)F)c(F)c3)C(=O)N2C1 [PP1488, (2S,8S,12R,14S,20S,23S,27S,30S,36S,38Z)-20-cyclopentyl-8-[2-[3,5-difluoro-4-(trifluoromethyl)phenyl]ethyl]-12-ethoxy-2-[(4-fluorophenyl)methyl]-27-isobutyl-N,N,4,19,22,26,32,35-octamethyl-30-[(1S)-1-methylpropyl]-3,6,9,15,18,21,25,28,31,34,42-undecaoxo-spiro[1,4,7,10,16,19,22,26,29,32,35-undecazatricyclo[34.5.1.0^10,14]dotetracont-38-ene-17,1′-cyclobutane]-23-carboxamide] | 81 pM | B (a compound having 3 or more and less than 10 is denoted as B) | A (a compound having 10 or more and less than 20 is denoted as A) |
| CCO[C@@H]1C[C@H]2C(=O)NC3(CCC3)C(=O)N(C)[C@@H](C3CCCC3)C(=O)N(C)[C@H](C)CC(=O)N(C)[C@@H](CC3CC3)C(=O)N[C@@H]([C@@H](C)CC)C(=O)N(C)CC(=O)N(C)[C@H]3C/C=C\CCN(C3=O)[C@@H](Cc3ccc(F)cc3)C(=O)N(C)CC(=O)N[C@@H](CCc3cc(F)c(C(F)(F)F)c(F)c3)C(=O)N2C1 [PP1490] | 600 pM | B (a compound having 3 or more and less than 10 is denoted as B) | B (a compound having 3 or more and less than 10 is denoted as B) |

Second part, led by results:

| Kd [2] | Structure (SMILES) | HRAS/KRAS (ratio of KD value for HRAS to KD value for KRAS) [1] | NRAS/KRAS (ratio of KD value for NRAS to KD value for KRAS) [3] |
| --- | --- | --- | --- |
| 260 pM | CCO[C@@H]1C[C@H]2C(=O)NC3(CCC3)C(=O)N(C)[C@@H](C3CCCC3)C(=O)N(C)[C@H](C(=O)N3CCOCC3)CC(=O)N(C)[C@@H](CC3CC3)C(=O)N[C@@H]([C@@H](C)CC)C(=O)N(C)CC(=O)N(C)[C@H]3C/C=C\CCN(C3=O)[C@@H](Cc3ccc(F)cc3)C(=O)N(C)CC(=O)N[C@@H](CCc3cc(F)c(C(F)(F)F)c(F)c3)C(=O)N2C1 [PP1496] | B (a compound having 3 or more and less than 10 is denoted as B) | A (a compound having 10 or more and less than 20 is denoted as A) |
| 22 pM | CC[C@H](C)[C@@H]1NC(=O)[C@H](CC2CC2)N(C)C(=O)C[C@@H](C(=O)N(C)C)N(C)C(=O)[C@H](C2CCCC2)N(C)C(=O)C2(CCC2)NC(=O)[C@@H]2C[C@@H](F)CN2C(=O)[C@H](CCc2cc(F)c(C(F)(F)F)c(F)c2)NC(=O)CN(C)C(=O)[C@H](Cc2ccc(C(F)(F)F)cc2)N2CC/C=C\C[C@@H](C2=O)N(C)C(=O)CN(C)C1=O [PP1497, (2S,8S,12R,14S,20S,23S,27S,30S,36S,38Z)-20-cyclopentyl-27-(cyclopropylmethyl)-8-[2-[3,5-difluoro-4-(trifluoromethyl)phenyl]ethyl]-12-fluoro-N,N,4,19,22,26,32,35-octamethyl-30-[(1S)-1-methylpropyl]-3,6,9,15,18,21,25,28,31,34,42-undecaoxo-2-[[4-(trifluoromethyl)phenyl]methyl]spiro[1,4,7,10,16,19,22,26,29,32,35-undecazatricyclo[34.5.1.0^10,14]dotetracont-38-ene-17,1′-cyclobutane]-23-carboxamide] | A (a compound having 10 or more and less than 20 is denoted as A) | A (a compound having 10 or more and less than 20 is denoted as A) |
| 69 pM | CC[C@H](C)[C@@H]1NC(=O)[C@H](CC2CC2)N(C)C(=O)C[C@@H](C(=O)N(C)C)N(C)C(=O)[C@H](C2CCCC2)N(C)C(=O)C2(CCC2)NC(=O)[C@@H]2C[C@@H](C(F)(F)F)CN2C(=O)[C@H](CCc2cc(F)c(C(F)(F)F)c(F)c2)NC(=O)CN(C)C(=O)[C@H](Cc2ccc(C(F)(F)F)cc2)N2CC/C=C\C[C@@H](C2=O)N(C)C(=O)CN(C)C1=O [PP1498] | A (a compound having 10 or more and less than 20 is denoted as A) | A (a compound having 10 or more and less than 20 is denoted as A) |
| 54 pM | CC[C@H](C)[C@@H]1NC(=O)[C@H](CC2CC2)N(C)C(=O)C[C@@H](C(=O)N(C)C)N(C)C(=O)[C@H](C2CCCC2)N(C)C(=O)C2(CCC2)NC(=O)[C@@H]2C[C@H](C)CN2C(=O)[C@H](CCc2cc(F)c(C(F)(F)F)c(F)c2)NC(=O)CN(C)C(=O)[C@H](Cc2ccc(C(F)(F)F)cc2)N2CC/C=C\C[C@@H](C2=O)N(C)C(=O)CN(C)C1=O [PP1499, (2S,8S,12S,14S,20S,23S,27S,30S,36S,38Z)-20-cyclopentyl-27-(cyclopropylmethyl)-8-[2-[3,5-difluoro-4-(trifluoromethyl)phenyl]ethyl]-N,N,4,12,19,22,26,32,35-nonamethyl-30-[(1S)-1-methylpropyl]-3,6,9,15,18,21,25,28,31,34,42-undecaoxo-2-[[4-(trifluoromethyl)phenyl]methyl]spiro[1,4,7,10,16,19,22,26,29,32,35-undecazatricyclo[34.5.1.0^10,14]dotetracont-38-ene-17,1′-cyclobutane]-23-carboxamide] | B (a compound having 3 or more and less than 10 is denoted as B) | A (a compound having 10 or more and less than 20 is denoted as A) |
